Key:
[1] = test system: cultured rat hippocampal neurons; assay: Intracellular free Mg2+ analysis (Magnesium Green) in hippocampal neuron cultures
Method: (§3) Neurons were plated onto Matrigel® (BD)-coated 8×8 mm coverslips or 6-well cell plates (Corning).
[Mg^2+]i was determined by using Magnesium Green™ (MgGreen, Invitrogen).
Where F(a.u.) is the mean fluorescent density (arbitrary units) in the branch of interest which was quantified by using Image-Pro Plus software (IPP, Media Cybernetics, Carlsbad, Calif.), and Ddiameter is the mean width of the same selected branch in DIC image.

hippocampal neurons [2] = assay: Functional terminal density by FM1-43 imaging
Method: as §3
Background FM, determined by imaging after unloading of FM dye following 480 APs at 2 Hz, was subtracted from the physiological action potential image. Terminals containing detectable amount of FM after subtraction were considered to be functional.
FM 1-43+ puncta number per μm^2 of dendrite was used to estimate functional presynaptic terminal density.

hippocampal neurons [3] = settings: threonate 0-150 μM, 2 days
Method: (§1) For chemical structure see supplemental FIG. 1.
Neuronal cultures were washed three times in 0.01 M PBS followed by fixation for 20 min in 4% paraformaldehyde at 4° C. The neuronal culture coverslips were then washed in PBS before incubation in blocking solution containing 0.1% Triton X-100 and 1% bovine serum albumin for 30 min at room temperature. […] Finally, neurons were mounted onto slides with anti-fade fluorescent mounting medium (Vector Laboratories) and stored at 4° C. for 2 days.
Cultures were imaged with a confocal laser inverted microscope (Olympus IX-70) equipped with a 60× (NA 1.2) objective. […] The density of synaptophysin (Syn) and PSD-95 was estimated from images by analyzing with IPP. The puncta of Syn and PSD-95, localized at the dendrites labeled by the neuronal marker MAP2, were counted manually. To determine the density of Syn and PSD-95 colocalization, we aligned two sets of images and resulting yellow clusters (Syn: red; PSD-95: green) localized at dendritic were quantified. Fluorescence spots (red and green) having a diameter between 0.1 and 0.6 μm were classified.

hNSC-derived neurons = test system: hNSC-derived neurons
Method: Human fetal cortices-derived neural stem cells (hNSC; Angecon, China) were cultured in hNSC medium (Angecon) according to guidelines provided by Angecon. hNSCs were maintained in this medium for 10-14 days, passaged using Accutase (Invitrogen), washed and replated at a dilution of 1:3 to 1:5.
A previously described differentiation protocol was used to differentiate hNSCs to neurons. Briefly, hNSC cultures were dissociated into single cells with Accutase, and then plated on polyornithine/laminin (Sigma)-coated 6-well plates at 50,000 cells per cm^2 in neural maintenance medium with EGF (Invitrogen) and FGF2 (Pepro Tech) at a concentration of 10 ng ml^−1. Neural maintenance medium consists of a 1:1 mixture of DMEM/F12 and Neurobasal medium (Invitrogen), 1×N2 (Invitrogen), 1×B27 (Invitrogen), 1 mM L-glutamine, 0.1 mM non-essential amino acids, 5 μg ml^−1 insulin, 0.1 mM 2-mercaptoethanol, 25 U ml^−1 penicillin and […] streptomycin. […] Neurons were maintained 10-14 days in this medium; medium was replaced every day. When neuroepithelial cells appeared, Dispase (Roche) was used to collect cells. They were replated in neural maintenance medium with EGF and FGF2 at 20 ng ml^−1 for 2-4 days, then changed to neural maintenance medium and cultured for up to 80 days, replacing medium every other day.
(§2) Proteins were transferred to PVDF membranes (Millipore), probed with primary antibodies against Synaptophysin (Millipore), RIM1 and Rab3a (Synaptic System), PSD-95, NR2B, β-tubulin and/or β-actin (all from Cell Signaling Technology) and then followed by an appropriate HRP-coupled secondary antibody (Cell Signaling Technology). The signals were detected by ECL detection reagent (GE Healthcare) and captured on autoradiography film (Kodak). For quantification of protein signals, the integrated optical density (IOD) was measured with IPP, and β-tubulin or β-actin on the same lane served as loading controls.

hippocampal neurons [4] = settings: threonate 0-150 μM, 2 days; remark: listed apart in the source
Description: as §1, §2

hippocampal neurons [5] = settings: threonate (150 M) for 2 days, 0.6 Mg, p<0.01
Description: Mitochondrial transmembrane potential (Δψm) of hippocampal neurons was observed microscopically (Olympus IX-70) by using 5,5′,6,6′-tetrachloro-1,1′,3,3′-tetraethylbenzimidazolylcarbocyanine iodide (JC-1, Invitrogen). The monomeric form of JC-1 has an emission maximum at 529 nm. At higher concentrations or potentials the dye forms red fluorescent J-aggregates with an emission maximum of 590 nm. The ratio of J-aggregate/J-monomer is used as an estimate of Δψm.

[6] = human neurons treated at day 90, dose-dependent, up to 400 μM
[7] = threonate 150 μM, time course 0-36 hr

Question: For `C=C1[C@@H](C)[C@H]2[C@H](Cc3ccccc3)NC(=O)[C@]23OC(=O)/C=C/[C@H](O)CCC[C@@H](C)C/C=C/[C@H]3[C@@H]1O` [CB, cytochalasin B, reference compound], which “intracellular [Mg2+] relative to control, inhibitor alone” value ([1]; 4 hr, without threonate) is on record?
Answer: did not alter

Question: What about the “density of functional terminals relative to control, inhibitor alone” value (hippocampal neurons [2]; 4 hr, without threonate) of the same molecule?
Answer: did not affect

Question: What does the source list for `NCC(=O)O` [glycinate, reference compound]?
Answer: ability to increase intracellular [Mg2+], comparison of anions [1]: threonate was the only one able to increase; effect on functional terminal density, comparison of anions (hippocampal neurons [2]): no significant effects

Question: Which results are given for `O=C(CCc1ccc(O)cc1)c1c(O)cc(O)cc1O` [phloretin, reference compound]?
Answer: decrease of intracellular [Mg2+] relative to placebo, inhibitor alone ([1]; 4 hr, without threonate, p<0.01): 10.4%; decrease of functional terminal density, inhibitor alone (hippocampal neurons [2]; 4 hr, without threonate, p<0.05): 10.5%

Question: With `O=C(O)[C@H](O)[C@@H](O)CO` [threonate, (2R,3S)-2,3,4-trihydroxybutanoate] as the molecule, how does the “colocalization of Syn/PSD-95” value (hippocampal neurons [3]) read?
Answer: significantly upregulated

Question: And the “density of PSD-95 puncta” value (hippocampal neurons [3])?
Answer: significantly upregulated

Question: And the “density of Syn puncta” value (hippocampal neurons [3])?
Answer: significantly upregulated

Question: And the “threonate dose response curve in human neurons compared to the rat dose response curve” value (hNSC-derived neurons; effects continued to increase even at 400 μM)?
Answer: shifted toward a higher concentration

Question: And the “PSD-95 expression (Western blot)” value (hNSC-derived neurons; [6])?
Answer: significantly increased

Question: What about the “Syn expression (Western blot)” value (hNSC-derived neurons; [6]) of the same molecule?
Answer: significantly increased

Question: What about the “NR2B-containing NMDAR expression (Western blot)” value (hippocampal neurons [4]) of the same molecule?
Answer: significantly upregulated

Question: What about the “PSD-95 expression (Western blot)” value (hippocampal neurons [4]) of the same molecule?
Answer: significantly increased

Question: And the “RIM1 expression (Western blot)” value (hippocampal neurons [4])?
Answer: significantly increased

Question: And the “Rab3a expression (Western blot)” value (hippocampal neurons [4])?
Answer: significantly increased

Question: What about the “Syn expression (Western blot)” value (hippocampal neurons [4]) of the same molecule?
Answer: significantly increased

Question: What about the “threonate-mediated increase of intracellular [Mg2+] in the presence of CB” value ([1]; 4 hr, with cytochalasin B (GLUTs inhibitor)) of the same molecule?
Answer: prevented

Question: And the “increase of intracellular [Mg2+] in the presence of phloretin” value ([1]; 4 hr, with phloretin (SVCT2 inhibitor), p<0.0001)?
Answer: 23.5%

Question: What about the “threonate concentration that induced the largest change in intracellular [Mg2+]” value ([1]; 2 day treatment, 0-200 μM tested) of the same molecule?
Answer: 150 µM

Question: And the “effect on intracellular [Mg2+]” value ([1]; 2 day treatment, threonate 0-200 μM, extracellular [Mg2+] 0.6, 0.8 or 1.2 mM)?
Answer: increase of intracellular [Mg^2+] in a dosage-dependent manner

Question: What about the “effect on intracellular [Mg2+] at reduced extracellular [Mg2+]” value ([1]; threonate 150 μM, 4 hr, 0.1 mM extracellular [Mg2+]) of the same molecule?
Answer: no longer induced elevation

Question: And the “increase of intracellular [Mg2+]” value ([1]; threonate 150 μM, 4 hr, 0.6 mM extracellular [Mg2+] (Example 3))?
Answer: ~27%

Question: And the “persistence of the intracellular [Mg2+] increase” value [1, 7]?
Answer: persisted for the entire course of the experiment

Question: What about the “time at which effect on intracellular [Mg2+] was maximal” value [1, 7] of the same molecule?
Answer: 2 h

Question: And the “increase of intracellular [Mg2+]” value ([1]; threonate (150 mM), 4 hr, 0.6 mM [Mg2+]o (Example 7), p<0.0001)?
Answer: 29.6%

Question: And the “effect on functional terminal density in the presence of CB” value (hippocampal neurons [2]; threonate 150 μM, 4 hr, with cytochalasin B)?
Answer: unable to elevate

Question: And the “increase of functional terminal density relative to control in the presence of phloretin” value (hippocampal neurons [2]; threonate 150 μM, 4 hr, with phloretin, p<0.001)?
Answer: 20.4%

Question: What about the “number of functional terminals, dose dependence” value (hippocampal neurons [2]; threonate 50-150 μM, 2 days, extracellular [Mg2+] 0.6, 0.8 or 1.2 mM) of the same molecule?
Answer: increased in threonate-treated neurons in a dose-dependent manner

Question: And the “effect on functional terminal density at reduced extracellular [Mg2+]” value (hippocampal neurons [2]; threonate 4 hr, 0.1 mM extracellular [Mg2+])?
Answer: prevented threonate from increasing functional terminal density

Question: And the “increase of functional terminal density” value (hippocampal neurons [2]; threonate (150 M) for 4 hr, 0.6 mM extracellular [Mg2+] (Example 5))?
Answer: 23%

Question: What about the “increase of mitochondrial membrane potential ΔΨm (JC-1 aggregate/monomer ratio)” value (hippocampal neurons [5]) of the same molecule?
Answer: 49.6%

From patent publication US10493048B2 (Neurocentria, Inc., priority 2015, dated 2019)
